Assay results published in patent US20120094964A1, “SULFAMOYL BENZOIC ACID DERIVATIVES AS TRPM8 ANTAGONISTS” (priority 2009, published 2012).
pIC50: −log10 of the molar value.

The compounds below were run against T1, human TRPM8 (Homo sapiens, UniProt Q7Z2W7) (assay: In Vitro human TRPM8 Functional Assay (intracellular Ca2+, Fluo4, FDSS, menthol activation)). Conditions: HEK293 cells stably expressing human TRPM8; activation with L-(-)-Menthol; 11-point dose-response.
T1 construct: expressed in transfected cells
Format: cell-based
Method in brief: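 Fluo4-loaded HEK293 cells stably expressing TRPM8 were preincubated with compound for 5 min at room temperature, then stimulated with L-menthol (20 μl of 90 μM stock) while fluorescence was read. IC50 values come from 11-point curves fitted to the mean of duplicate wells.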

T1 sequence (Q7Z2W7 whole entry): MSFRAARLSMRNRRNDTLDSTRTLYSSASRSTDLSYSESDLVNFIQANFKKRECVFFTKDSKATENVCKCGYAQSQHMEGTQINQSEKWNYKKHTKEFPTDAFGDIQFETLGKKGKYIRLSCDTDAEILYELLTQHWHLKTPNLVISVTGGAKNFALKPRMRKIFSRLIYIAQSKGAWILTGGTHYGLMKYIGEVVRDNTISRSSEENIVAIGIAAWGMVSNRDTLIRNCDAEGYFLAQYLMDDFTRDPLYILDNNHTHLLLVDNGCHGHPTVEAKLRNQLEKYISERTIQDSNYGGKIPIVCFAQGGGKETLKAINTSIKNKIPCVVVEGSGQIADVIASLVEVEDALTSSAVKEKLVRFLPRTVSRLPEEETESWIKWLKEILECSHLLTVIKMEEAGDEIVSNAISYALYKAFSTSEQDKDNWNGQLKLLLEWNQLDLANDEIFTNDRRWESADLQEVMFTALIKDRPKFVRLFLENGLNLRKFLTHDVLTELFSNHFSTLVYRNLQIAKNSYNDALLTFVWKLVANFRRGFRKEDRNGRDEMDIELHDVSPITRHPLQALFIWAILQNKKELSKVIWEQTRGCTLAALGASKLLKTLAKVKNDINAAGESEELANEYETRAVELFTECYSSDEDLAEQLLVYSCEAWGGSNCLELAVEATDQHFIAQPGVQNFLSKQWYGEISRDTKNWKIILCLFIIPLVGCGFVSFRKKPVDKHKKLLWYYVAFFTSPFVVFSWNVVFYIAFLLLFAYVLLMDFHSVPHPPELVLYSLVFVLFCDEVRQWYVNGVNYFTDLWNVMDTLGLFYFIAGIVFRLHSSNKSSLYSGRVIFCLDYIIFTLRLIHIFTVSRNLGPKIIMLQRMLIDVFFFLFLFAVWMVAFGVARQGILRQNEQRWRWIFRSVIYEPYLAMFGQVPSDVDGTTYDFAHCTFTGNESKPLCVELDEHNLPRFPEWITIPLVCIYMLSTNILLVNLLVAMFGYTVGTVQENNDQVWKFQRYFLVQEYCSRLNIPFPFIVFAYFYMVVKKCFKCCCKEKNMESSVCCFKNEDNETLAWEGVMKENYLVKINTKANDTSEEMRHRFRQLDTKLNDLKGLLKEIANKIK

Row | pIC50 | SMILES
1 | > 6.00 | Cc1cc(Cl)cnc1N(Cc1ccccc1)S(=O)(=O)c1ccc(C(=O)O)cc1 [Example 38, 4-(N-Benzyl-N-(5-chloro-3-methylpyridin-2-yl)sulfamoyl)benzoic acid]
2 | > 6.00 | Cc1cc(Cl)cnc1N(Cc1ccc(OC(F)(F)F)cc1)S(=O)(=O)c1ccc(C(=O)O)cc1 [Example 78, 4-(N-(5-Chloro-3-methylpyridin-2-yl)-N-(4-(trifluoromethoxy)benzyl)sulfamoyl)benzoic acid]
3 | > 6.00 | O=C(O)c1ccc(S(=O)(=O)N(Cc2ccccc2OC(F)(F)F)c2ncc(C(F)(F)F)cc2Cl)cc1 [Example 51, 4-(N-(3-Chloro-5-(trifluoromethyl)pyridin-2-yl)-N-(2-(trifluoromethoxy)benzyl)sulfamoyl)benzoic acid]
4 | > 6.00 | O=C(O)c1ccc(S(=O)(=O)N(Cc2ccc(F)c(Cl)c2)c2ncc(Cl)cc2Cl)cc1 [Example 69, 4-(N-(3-Chloro-4-fluorobenzyl)-N-(3,5-dichloropyridin-2-yl)sulfamoyl)benzoic acid]
5 | 5.00 to 6.00 | O=S(=O)(c1ccc(Cl)cc1)N(Cc1ccccc1)c1ccccn1 [Example 129, N-Benzyl-4-chloro-N-(pyridin-2-yl)benzene-sulfonamide]
6 | > 6.00 | O=C(O)c1ccc(S(=O)(=O)N(Cc2ccccc2)c2ncc(C(F)(F)F)cc2Cl)cc1F [Example 191, 4-(N-Benzyl-N-(3-chloro-5-(trifluoromethyl)pyridin-2-yl)sulfamoyl)-2-fluorobenzoic acid]
7 | > 6.00 | O=C(O)c1ccc(S(=O)(=O)N(Cc2ccccc2C(F)(F)F)c2ncc(Cl)cc2Cl)cc1 [Example 64, 4-(N-(3,5-Dichloropyridin-2-yl)-N-(2-(trifluoromethyl)benzyl)sulfamoyl)benzoic acid]
8 | > 6.00 | O=C(O)c1ccc(S(=O)(=O)N(Cc2ccc(-c3ccco3)cc2)c2ncc(C(F)(F)F)cc2Cl)cc1 [Example 157, 4-(N-(3-Chloro-5-(trifluoromethyl)pyridin-2-yl)-N-(4-(furan-2-yl)-benzyl)sulfamoyl)benzoic acid]
9 | 4.52 to 5.00 | O=C(O)c1ccc(S(=O)(=O)N(Cc2ccccc2)c2ncccc2C(F)(F)F)cc1 [Example 2, 4-(N-Benzyl-N-(3-(trifluoromethyl)pyridin-2-yl)sulfamoyl)benzoic acid]
10 | > 6.00 | O=C(O)c1ccc(S(=O)(=O)N(Cc2csc(-c3ccccc3)n2)c2ncc(C(F)(F)F)cc2Cl)cc1 [Example 198, 4-(N-(3-Chloro-5-(trifluoromethyl)pyridin-2-yl)-N-((2-phenylthiazol-4-yl)methyl)sulfamoyl)benzoic acid]
11 | > 6.00 | O=C(O)c1ccc(S(=O)(=O)N(Cc2c(F)cccc2F)c2ncc(C(F)(F)F)cc2Cl)cc1 [Example 44, 4-(N-(3-Chloro-5-(trifluoromethyl)pyridin-2-yl)-N-(2,6-difluorobenzyl)sulfamoyl)benzoic acid]
12 | > 6.00 | O=C(O)c1ccc(S(=O)(=O)N(c2ncc(C(F)(F)F)cc2Cl)C2(c3ccccc3)CC2)cc1 [Example 193, 4-(N-(3-Chloro-5-(trifluoromethyl)pyridin-2-yl)-N-(1-phenylcyclopropyl)sulfamoyl)benzoic acid]
13 | > 6.00 | O=C(O)c1ccc(S(=O)(=O)N(Cc2ccccc2)c2ncc(-c3ccsc3)cc2Cl)cc1 [Example 184, 4-(N-Benzyl-N-(3-chloro-5-(thiophen-3-yl)pyridin-2-yl)sulfamoyl)benzoic acid]
14 | 5.00 to 6.00 | COc1ccc(OC)c(C(C)N(c2cccc(Cl)c2)S(=O)(=O)c2ccc(C)cc2)c1 (centres unmarked) [Example 86, N-(3-Chlorophenyl)-N-(1-(2,5-dimethoxyphenyl)ethyl)-4-methylbenzene-sulfonamide]
15 | 4.52 to 5.00 | O=C(O)c1ccc(S(=O)(=O)N(CCOc2ccc(F)cc2)c2ncc(Cl)cc2Cl)cc1 [Example 73, 4-(N-(3,5-Dichloropyridin-2-yl)-N-(2-(4-fluorophenoxy)ethyl)sulfamoyl)benzoic acid]
16 | > 6.00 | O=C(O)c1ccc(S(=O)(=O)N(Cc2cccc(C(F)(F)F)c2)c2ncc(C(F)(F)F)cc2Cl)cc1 [Example 23, 4-(N-(3-Chloro-5-(trifluoromethyl)pyridin-2-yl)-N-(3-(trifluoromethyl)benzyl)sulfamoyl)benzoic acid]
17 | 5.00 to 6.00 | CCOc1ccccc1N(Cc1ccc(Cl)cc1)S(=O)(=O)c1cccc(C(=O)O)c1 [Example 125, 3-(N-(4-Chlorobenzyl)-N-(2-ethoxyphenyl)sulfamoyl) benzoic acid]
18 | > 6.00 | O=C(O)c1ccc(S(=O)(=O)N(Cc2cccc(Cl)c2)c2ncc(C(F)(F)F)cc2Cl)cc1 [Example 48, 4-(N-(3-Chloro-5-(trifluoromethyl)pyridin-2-yl)-N-(3-chlorobenzyl)sulfamoyl)benzoic acid]
19 | > 6.00 | N#Cc1ccc(CN(c2ncc(C(F)(F)F)cc2Cl)S(=O)(=O)c2ccc(C(=O)O)cc2)cc1 [Example 33, 4-(N-(3-Chloro-5-(trifluoromethyl)pyridin-2-yl)-N-(4-cyanobenzyl)sulfamoyl)benzoic acid]

Row | pIC50 | SMILES
20 | 5.00 to 6.00 | COc1ccc(OC)c(C(C)N(c2ccc(F)cc2)S(=O)(=O)c2ccc(F)cc2C)c1 (centres unmarked) [Example 135, N-(1-(2,5-Dimethoxyphenyl)ethyl)-4-fluoro-N-(4-fluoro-phenyl)-2-methylbenzene-sulfonamide]
21 | > 6.00 | O=C(O)c1ccc(S(=O)(=O)N(Cc2ccccc2)c2ncc(C(F)(F)F)cc2Cl)c(F)c1 [Example 190, 4-(N-Benzyl-N-(3-chloro-5-(trifluoromethyl)pyridin-2-yl)sulfamoyl)-3-fluorobenzoic acid]
22 | > 6.00 | O=C(O)c1ccc(S(=O)(=O)N(Cc2ccccc2)c2ncc(C(F)(F)F)cc2Cl)cc1Cl [Example 188, 4-(N-Benzyl-N-(3-chloro-5-(trifluoromethyl)pyridin-2-yl)sulfamoyl)-2-chlorobenzoic acid]
23 | 4.52 to 5.00 | O=C(O)c1cc(S(=O)(=O)N(Cc2ccccc2)c2ccccc2)ccc1Cl [Example 117, 5-(N-Benzyl-N-phenylsulfamoyl)-2-chlorobenzoic acid]
24 | > 6.00 | O=C(O)c1ccc(S(=O)(=O)N(Cc2ccc(F)cc2F)c2ncc(C(F)(F)F)cc2Cl)cc1 [Example 26, 4-(N-(3-Chloro-5-(trifluoromethyl)pyridin-2-yl)-N-(2,4-difluorobenzyl)sulfamoyl)benzoic acid]
25 | 5.00 to 6.00 | Cc1cccnc1N(Cc1ccccc1)S(=O)(=O)c1ccc(C(=O)O)cc1 [Example 34, 4-(N-Benzyl-N-(3-methylpyridin-2-yl)sulfamoyl)benzoic acid]
26 | > 6.00 | O=C(O)c1ccc(S(=O)(=O)N(Cc2ccc(NC(=O)c3ccccn3)cc2)c2ncc(C(F)(F)F)cc2Cl)cc1 [Example 161, 4-(N-(3-Chloro-5-(trifluoromethyl)pyridin-2-yl)-N-(4-(picolinamido)benzyl)sulfamoyl)benzoic acid]
27 | > 6.00 | O=C(O)c1ccc(S(=O)(=O)N(Cc2ccccc2)c2ncc(C(F)(F)F)cc2Cl)cc1 [Example 1, 4-(N-Benzyl-N-(3-chloro-5-(trifluoromethyl)pyridin-2-yl)sulfamoyl)benzoic acid]
28 | 5.00 to 6.00 | O=C(O)c1ccc(Cl)c(S(=O)(=O)N(Cc2ccccc2)c2ccc(Cl)cc2)c1 [Example 110, 3-(N-Benzyl-N-(4-chlorophenyl)sulfamoyl)-4-chlorobenzoic acid]
29 | 5.00 to 6.00 | Cc1cccc(N(C(C)c2ccccc2F)S(=O)(=O)c2cc(F)ccc2C)c1 (centres unmarked) [Example 99, 5-Fluoro-N-(1-(2-fluoro-phenyl)ethyl)-2-methyl-N-m-tolylbenzenesulfonamide]
30 | 5.00 to 6.00 | O=S(=O)(c1cc(Cl)ccc1Cl)N(Cc1ccccc1)c1ccccn1 [Example 109, N-Benzyl-2,5-dichloro-N-(pyridin-2-yl)benzene sulfonamide]
31 | 5.00 to 6.00 | O=C(O)c1ccc(S(=O)(=O)N(CCN2CCOCC2)c2ccc(C(F)(F)F)cc2Cl)cc1 [Example 81, 4-(N-(2-Chloro-4-(trifluoromethyl)phenyl)-N-(2-morpholinoethyl)sulfamoyl)benzoic acid]
32 | 4.52 to 5.00 | O=C(O)c1cccc(S(=O)(=O)N(Cc2ccccc2)c2ccccc2Cl)c1 [Example 112, 3-(N-Benzyl-N-(2-chlorophenyl)sulfamoyl) benzoic acid]
33 | 5.00 to 6.00 | Cc1cccc(N(C(C)c2ccccc2F)S(=O)(=O)c2ccccc2C)c1 (centres unmarked) [Example 100, N-(1-(2-Fluorophenyl)ethyl)-2-methyl-N-tolyl benzenesulfonamide]
34 | > 6.00 | Cc1cc(C(F)(F)F)cnc1N(Cc1ccccc1)S(=O)(=O)c1ccc(C(=O)O)cc1 [Example 153, 4-(N-Benzyl-N-(3-methyl-5-(trifluoromethyl)pyridin-2-yl)sulfamoyl)benzoic acid]
35 | 5.00 to 6.00 | Cc1ccc(S(=O)(=O)N(Cc2ccccc2)c2ccccn2)cc1 [Example 106, N-Benzyl-4-methyl-N-(pyridin-2-yl) benzenesulfonamide]
36 | > 6.00 | O=C(O)c1ccc(S(=O)(=O)N(Cc2ccc(F)c(Cl)c2)c2ncc(C(F)(F)F)cc2Cl)cc1 [Example 71, 4-(N-(3-Chloro-4-fluorobenzyl)-N-(3-chloro-5-(trifluoromethyl)pyridin-2-yl)sulfamoyl)benzoic acid]
37 | > 6.00 | O=C(O)c1ccc(S(=O)(=O)N(Cc2ccc(Cl)c(C(F)(F)F)c2)c2ncc(Cl)cc2Cl)cc1 [Example 66, 4-(N-(4-Chloro-3-(trifluoromethyl)benzyl)-N-(3,5-dichloropyridin-2-yl)sulfamoyl)benzoic acid]
38 | > 6.00 | NS(=O)(=O)Nc1ccc(S(=O)(=O)N(Cc2ccccc2)c2ncc(C(F)(F)F)cc2Cl)cc1 [Example 196, N-Benzyl-N-(3-chloro-5-(trifluoromethyl)pyridin-2-yl)-4-(sulfamoylamino)benzenesulfonamide]
